In US6699908B2, “Methods for providing safe local anesthesia” (Euro-Celtique, S.A., priority 1996, dated 2004):
Where a name gives a salt, the structure may show the parent alone.

Key:
Sprague-Dawley rats = assay: Single dose toxicity (acute lethality) in rats, intramuscular; assay type: in vivo; settings: for Mortality: I.M.
Protocol: Sprague-Dawley rats from Charles River, 6-8 weeks of age (body weight about […] for females and about 200-290 grams for males) were used for these studies.
Male and female rats were dosed intramuscularly in the hind limb with bupivacaine base (the form used in the microspheres), aqueous bupivacaine HCl, or LAB. The animals were examined for pharmacotoxic signs (including tremors and convulsions, and death).

sciatic nerve = assay: Local injection proximal to the sciatic nerve, rat hot plate assay / dose-response; assay type: in vivo; settings: rats, local injection of 25 mg/kg (8 mg/nerve)
[1] = in vivo; cited from earlier work

For `CCCCN1CCCCC1C(=O)Nc1c(C)cccc1C` (stereo not drawn) [Bupivacaine HCl, bupivacaine HCl], the Mortality (Sprague-Dawley rats; 5 mg/kg) was 0/4, the Mortality (Sprague-Dawley rats; 10 mg/kg) was 0/4 and the Mortality (Sprague-Dawley rats; 25 mg/kg) was 0/4. For the same molecule, the Mortality (Sprague-Dawley rats; 50 mg/kg, HCl) was 4/4, the Mortality (Sprague-Dawley rats; 100 mg/kg, HCl) was 4/4 and the lowest lethal dose (Sprague-Dawley rats; intramuscular dosing) was 10.6 mg/kg. The “paralysis of the hindlimb (local motor anesthesia)” value (Sprague-Dawley rats; intramuscular dosing in the hind limb) was “More transient paralysis” and the “deaths of the animals” value (sciatic nerve) was “about 10%”.

In the case of `CCCCN1CCCCC1C(=O)Nc1c(C)cccc1C` (stereo not drawn) [bupivacaine], the “plasma concentrations associated with toxicity” value [1] is listed as over 1.6 µg/mL.

With `CCCCN1CCCCC1C(=O)Nc1c(C)cccc1C` (stereo not drawn) [Bupivacaine free base, bupivacaine base] the Mortality (Sprague-Dawley rats; 50 mg/kg) was 1/4, the Mortality (Sprague-Dawley rats; 100 mg/kg) was 1/4 and the Mortality (Sprague-Dawley rats; 150 mg/kg) was 2/4.
